Measured values published in patent US12685733B2, “Indole molecules and use thereof in the inhibition of DNA polymerases” (BioVentures, LLC, priority 2019, dated 2026).

Legend:
[1] = molecular target: T1, Dpo1 (Saccharolobus solfataricus, UniProt P26811); assay: Fluorescence-based polymerase assay, other pol families; assay type: biochemical, Sulfolobus solfataricus; conditions: 10 μM; 25 nM Dpo1 (B-family)
T1 construct: made in house
T1 sequence (P26811 1-882): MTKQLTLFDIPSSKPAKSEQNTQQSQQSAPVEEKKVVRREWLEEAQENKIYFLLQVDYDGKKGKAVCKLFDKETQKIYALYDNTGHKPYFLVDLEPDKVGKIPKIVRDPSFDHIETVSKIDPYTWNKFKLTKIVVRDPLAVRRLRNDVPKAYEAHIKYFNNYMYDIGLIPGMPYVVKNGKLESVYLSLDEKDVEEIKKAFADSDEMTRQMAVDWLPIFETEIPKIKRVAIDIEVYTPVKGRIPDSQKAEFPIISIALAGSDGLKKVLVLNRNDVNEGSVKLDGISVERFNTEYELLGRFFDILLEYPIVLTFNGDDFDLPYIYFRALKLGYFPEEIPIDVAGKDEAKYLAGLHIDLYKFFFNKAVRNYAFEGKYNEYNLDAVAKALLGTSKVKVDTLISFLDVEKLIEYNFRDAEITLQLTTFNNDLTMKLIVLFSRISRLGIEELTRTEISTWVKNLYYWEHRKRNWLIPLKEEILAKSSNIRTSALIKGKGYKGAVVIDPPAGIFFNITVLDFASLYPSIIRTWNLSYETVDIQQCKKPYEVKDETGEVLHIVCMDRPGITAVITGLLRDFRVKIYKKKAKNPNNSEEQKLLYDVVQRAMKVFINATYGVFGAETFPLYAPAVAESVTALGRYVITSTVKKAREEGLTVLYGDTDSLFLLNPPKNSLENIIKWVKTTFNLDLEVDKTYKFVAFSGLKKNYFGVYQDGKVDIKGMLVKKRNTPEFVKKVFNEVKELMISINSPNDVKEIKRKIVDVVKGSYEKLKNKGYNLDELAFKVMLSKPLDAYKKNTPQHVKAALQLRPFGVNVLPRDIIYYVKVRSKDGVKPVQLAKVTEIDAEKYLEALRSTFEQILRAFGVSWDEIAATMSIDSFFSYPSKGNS

[2] = molecular target: T2, hpol κ (Homo sapiens, UniProt Q9UBT6); assay: HPG labeling (chemical footprinting) with LC-MS; design: hpol κ (residues 19-526); made in house; conditions: IAG-10 20 and 100 μM added
T2 sequence (Q9UBT6 19-526): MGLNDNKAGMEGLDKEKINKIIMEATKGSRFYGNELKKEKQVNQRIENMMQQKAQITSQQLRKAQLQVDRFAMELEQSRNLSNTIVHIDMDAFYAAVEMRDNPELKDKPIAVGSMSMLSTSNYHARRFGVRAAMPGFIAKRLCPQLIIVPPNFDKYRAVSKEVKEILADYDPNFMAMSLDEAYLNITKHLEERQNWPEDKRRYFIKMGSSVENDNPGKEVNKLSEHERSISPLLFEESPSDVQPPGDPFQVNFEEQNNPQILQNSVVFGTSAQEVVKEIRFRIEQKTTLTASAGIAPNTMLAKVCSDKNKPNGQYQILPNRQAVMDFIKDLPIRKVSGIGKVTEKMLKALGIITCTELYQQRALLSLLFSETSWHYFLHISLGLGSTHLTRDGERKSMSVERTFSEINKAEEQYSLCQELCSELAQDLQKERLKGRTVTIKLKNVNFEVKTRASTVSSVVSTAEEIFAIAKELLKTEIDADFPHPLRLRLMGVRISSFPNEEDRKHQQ
Experimental: HPG is a commonly used amino-acid modifier, which when reacted with a protein, modifies the L-arginine side chains selectively. HPG labeling experiments were performed with hpol κ (10 μM) in the presence or absence of UAMS-48. Briefly, hpol κ was pre-incubated with either 20 μM (1:2 molar ratio) or 100 μM (1:10 molar ratio) IAG-10 for 10 mins at 37° C. in 50 mM HEPES buffer (pH 7.8) containing 200 mM NaCl, 10 mM MgCl2, and 10% v/v DMSO. The HPG labeling was carried out at 37° C. in the dark for 1 hr by adding 500 μM of HPG to the pre-incubated reaction mix, followed by addition of 200 mM of free L-arginine to quench the reaction after 1 hr. […]
The peak intensity was then quantified manually using the corresponding m/z value and the relative abundance for each modified peptide was calculated as a function of area under the peak in Xcalibur™ software (ThermoFisher Scientific). The percentage of modified arginine measured by mass spectrometry was calculated as a fraction of total arginine (i.e. unmodified+HPG modified) quantified for a specific residue. […]
Next, Chemical footprinting was used in an effort to ascertain the binding site of IAG-10 on hpol κ. […] After quenching the reaction and gel electrophoresis, the modified protein was trypsin-digested, and the resulting peptides were analyzed by LC-MS. […]

Cl.[H]/N=C(\N)NN=Cc1cn(C(=O)c2cccc3ccccc23)c2ccc(Cl)cc12 [IAG-10, (E)-2-((1-(1-naphthoyl)-5-chloro-1H-indol-3-y1)methylene)hydrazine-1-carboximidamide hydrochloride]
polymerase activity relative to DMSO control [1]: only hpol κ activity was inhibited
decrease in the fraction of HPG-modified peptides (Arg145, Arg149, Arg505) [2]: > 50%
fraction of HPG-modified peptides containing Arg48 [2]: large increase
